pIC50, pKd: −log10 of the molar value.
What was measured:
PDHK2 = PDHK2 (Homo sapiens (Human), UniProt Q15119); experiment: Biochemical activity testing of PDHK2: PDC inactivation assay; details: human rec PDHK2, PDC from porcine heart, ATP 5 μM; read-out: IC50 PDHK2 (enzyme assay)
Text: Biochemical Activity Testing of PDHK2: PDC Inactivation Assay
The biochemical activity assay for PDHK2 is based on the inactivation of PDC through phosphorylation by PDHK2. The assay is run in two steps: the enzymatic PDHK2 reaction in which isolated PDC is phosphorylated by PDHK2 with ATP as co-substrate and the PDC activity assay in which pyruvate and NAD are converted to acetyl-CoA and NADH. The PDC activity correlates to the increase in NADH and thereby is detectable directly via the increasing fluorescence signal (Exc 340 nm, Em 450 nm). Inhibition of PDHK2 results in a lower phosphorylation status and thereby a less decrease in activity of PDC and a stronger increase in NADH fluorescence signal.
The PDC inactivation assay is performed in Greiner 384-well microtiter plates and is used for high throughput screen. 4 μl of PDHK2 (human, rec, Carna Bioscience, 10 ng/μl-137 nM final concentration) and PDC (isolated from porcine heart, Sigma-Aldrich, 20 mU/ml final concentration) are incubated in the absence or presence of the test compound (10 dilution concentrations) for 30 min at room temperature in kinase buffer (15 mM potassium phosphate buffer, pH 7.0, 60 mM KCl, 1.5 mM DTT, 2.5 mM MgCl2, 0.0125% (w/v) BSA, 0.125% Pluronic F-68). The kinase reaction is started by the addition of 4 μl ATP substrate solution (fc 5 μM in kinase buffer). After 30 min incubation at 37° C. 40 μl of PDC reaction solution (100 mM Tris/HCl, pH 7.8, 0.5 mM EDTA, 1 mM MgCl2, 50 mM NaF, 0.25 mM Coenzyme A, 5 mM pyruvate, 1 mM NAD, 5 mM DTT, 1 mM thiamine pyrophosphate) is added. The first fluorescence measurement is performed on a Perkin Elmer Envision (Exc 340 nm, Em 450 nm). The reaction is incubated for 45 min at room temperature. Afterwards a second fluorescence measurement is performed and the PDC activity is calculated by the difference between both measurements. As full value for the PDHK2 assay the inhibitor-free PDHK2 reaction is used. The pharmacological zero value used is DCA (Sigma-Aldrich) in a final concentration of 3 mM. The inhibitory values (IC50) were determined using either the program Symyx Assay Explorer® or Condosseo® from GeneData.

[1] = tested on: PDH-E1alpha (pSer300) in HEK293T cells; experiment: Cellular immunofluorescence assay, PDH-E1alpha (pSer300); type: cell-based; details: Homo sapiens, HEK-293T, 5 hours incubation, read-out: IC50 (cell data)
Protocol: Cellular Assay for Determination of Compound Activities
Compound activities were determined in a cellular immunofluorescence assay. Human HEK293T cells were seeded into black 384-well plates with clear bottom and grown overnight.
Next day, test compounds were added to the wells and the plates incubated for 5 hours. Following this, cells were fixed with formaldehyde, permeabilised and blocked. The primary antibody, Anti-PDH-E1alpha (pSer300), AP1064 (Merck Millipore) was added and incubated overnight in the plate wells. Next, cells were washed and the seconday antibody, Alexa Fluor 488, goat anti-rabbit ab (A-11008, Invitrogen) was added together with Hoechst 33258 (H3569, Invitrogen) and incubated for 1 hour in the plate wells. Finally, cells were washed and the plates were measured on the laser scanning cytometer acumen hci (TTpLabtech).
The raw data were normalized against a pharmacological inhibitor control and dose response curves were generated by plotting the percent effect values using the software package Genedata screener (Genedata).

human PDHK2 (12-407) = human PDHK2 (12-407) (Homo sapiens (Human), UniProt Q15119); experiment: Isothermal titration calorimetry (ITC) binding; details: 30° C., pH 7.5
Protocol: Isothermal Titration Calorimetry
ITC measurements were performed with a VP-ITC micro calorimeter (Microcal, LLC/GE Healthcare Bio-Sciences AB, Uppsala, Sweden). In general titrations were performed by titrating the protein (50 μM) to the test compound (5 μM) in 12 μl injections. All binding experiments were carried out at 30° C. In general the test compounds were diluted form DMSO stock solutions into the measurement buffer with a maximum final concentration of 1% DMSO. The measurement buffer was 20 mM HEPES, 135 mM KCl, 1 mM TCEP, 2 mM MgCl2, 15 mM NaH2PO4, pH 7.5. The human PDHK2 (12-407) was produced in E. coli as his-tagged protein and purified by affinity chromatography. The tag was removed by side specific proteolysis. Before titration the protein buffer was changed to the measurement buffer containing the same DMSO concentration as the test compound dilution. ITC data analysis was performed using Origin 7 calorimetry software from the same supplier. For most measurements a binding model of one binding site was assumed. According to the applied mathematical model it is possible to calculate the binding constant (KA), the observed binding enthalpy (ΔH^obs) as well as the stoichiometry (N) of the formed complex. Preceding analysis the raw data was corrected for the heats of dilution by extrapolating from the saturation value from the end of titration. In order to allow for direct comparison between the respective experimental series and protein preparations the protein concentration was corrected by referencing titrations to a well behaved standard inhibitor. The apparent stoichiometry values defined the fraction of binding competent protein and compensated for relative errors in protein concentration measurements. This corrected protein concentration was used to set up ITC experiment series with test compounds. Any deviations from ideal 1:1 stoichiometry observed here were attributed to errors in compound concentration. This nominal compound concentration was corrected as well to achieve 1:1 stoichiometry in the fit.

Row | pIC50 (PDHK2) | pKd (human PDHK2 (12-407)) | SMILES | pIC50 [1]
1 | 6.14 | 7.30 | CC(C)(c1nnc(-c2ccccc2)o1)C1CCN(C(=O)[C@@](C)(O)C(F)(F)F)CC1 [Compound A9, (R)-3,3,3-Trifluoro-2-hydroxy-2-methyl-1-{4-[1-methyl-1-(5-phenyl-[1,3,4]oxadiazol-2-yl)-ethyl]-piperidin-1-yl}-propan-1-one] | 6.19
2 | 5.22 | – | COc1ccc(-c2nnc(C3([C@@H]4CCN(C(=O)[C@@](C)(O)C(F)(F)F)C[C@@H]4C)CC3)[nH]2)cn1 [Compound A39, (R)-3,3,3-Trifluoro-2-hydroxy-1-((3R,4R)-4-{1-[5-(6-methoxy-pyridin-3-yl)-4H-[1,2,4]triazol-3-yl]-cyclopropyl}-3-methyl-piperidin-1-yl)-2-methyl-propan-1-one] | –
3 | 5.85 | 6.54 | CC(C)(c1nnc(C2CCCCC2)[nH]1)C1CCN(C(=O)[C@@](C)(O)C(F)(F)F)CC1 [Compound A4, (R)-1-{4-[1-(5-Cyclohexyl-4H-[1,2,4]triazol-3-yl)-1-methyl-ethyl]-piperidin-1-yl}-3,3,3-trifluoro-2-hydroxy-2-methyl-propan-1-one] | 5.41
4 | 5.31 | – | Cc1ccc(-c2nnc(C3([C@@H]4CCN(C(=O)[C@@](C)(O)C(F)(F)F)C[C@@H]4C)CC3)[nH]2)cc1 [Compound A21, (R)-3,3,3-Trifluoro-2-hydroxy-2-methyl-1-{(3R,4R)-3-methyl-4-[1-(5-p-tolyl-4H-[1,2,4]triazol-3-yl)-cyclopropyl]-piperidin-1-yl}-propan-1-one] | –
5 | 6.49 | 7.01 | CC(C)(c1nnc(-c2ccccc2)[nH]1)C1CCN(C(=O)[C@@](C)(O)C(F)(F)F)CC1 [Compound A3, (R)-3,3,3-Trifluoro-2-hydroxy-2-methyl-1-{4-[1-methyl-1-(5-phenyl-4H-[1,2,4]triazol-3-yl)-ethyl]-piperidin-1-yl}-propan-1-one] | 5.48
6 | 6.57 | 8.06 | CC1CN(C(=O)[C@@](C)(O)C(F)(F)F)CCC1C1(c2nnc(-c3ccccc3)o2)CC1 (stereo partly drawn) [Compound A12, (R)-3,3,3-Trifluoro-2-hydroxy-2-methyl-1-{3-methyl-4-[1-(5-phenyl-[1,3,4]oxadiazol-2-yl)-cyclopropyl]-piperidin-1-yl}-propan-1-one] | 7.25
7 | 6.74 | 8.44 | COc1ccc(-c2nnc(C3([C@H]4CCN(C(=O)[C@@](C)(O)C(F)(F)F)C[C@H]4C)CC3)o2)cc1 [Compound A31, (R)-3,3,3-Trifluoro-2-hydroxy-1-((3S,4S)-4-{1-[5-(4-methoxy-phenyl)-[1,3,4]oxadiazol-2-yl]-cyclopropyl}-3-methyl-piperidin-1-yl)-2-methyl-propan-1-one] | 7.77
8 | 4.96 | – | C[C@H]1CN(C(=O)[C@@](C)(O)C(F)(F)F)CC[C@H]1C1(c2nnc(-c3ccccc3)o2)CC1 (stereo in doubt) [Compound A15, (R)-3,3,3-Trifluoro-2-hydroxy-2-methyl-1-{(S)-3-methyl-4-[1-(5-phenyl-[1,3,4]oxadiazol-2-yl)-cyclopropyl]-piperidin-1-yl}-propan-1-one] | 5.14
9 | 5.14 | – | Cc1ccc(-c2nnc(C3([C@@H]4CCN(C(=O)[C@@](C)(O)C(F)(F)F)C[C@@H]4C)CC3)o2)cc1 [Compound A24, (R)-3,3,3-Trifluoro-2-hydroxy-2-methyl-1-{(3R,4R)-3-methyl-4-[1-(5-p-tolyl-[1,3,4]oxadiazol-2-yl)-cyclopropyl]-piperidin-1-yl}-propan-1-one] | –
10 | 5.09 | – | C[C@H]1CN(C(=O)[C@@](C)(O)C(F)(F)F)CC[C@H]1C1(c2nnc(-c3ccc(Cl)cc3)o2)CC1 [Compound A36, (R)-1-((3R,4R)-4-{1-[5-(4-Chloro-phenyl)-[1,3,4]oxadiazol-2-yl]-cyclopropyl}-3-methyl-piperidin-1-yl)-3,3,3-trifluoro-2-hydroxy-2-methyl-propan-1-one] | –
11 | 5.59 | – | C[C@H]1CN(C(=O)[C@@](C)(O)C(F)(F)F)CC[C@H]1C1(c2nnc(-c3ccc(F)cc3)[nH]2)CC1 [Compound A18, (R)-3,3,3-Trifluoro-1-((3R,4R)-4-{1-[5-(4-fluoro-phenyl)-4H-[1,2,4]triazol-3-yl]-cyclopropyl}-3-methyl-piperidin-1-yl)-2-hydroxy-2-methyl-propan-1-one] | –
12 | 4.89 | – | COc1ccc(-c2nnc(C3([C@@H]4CCN(C(=O)[C@@](C)(O)C(F)(F)F)C[C@@H]4C)CC3)[nH]2)cc1 [Compound A27, (R)-3,3,3-Trifluoro-2-hydroxy-1-((3R,4R)-4-{1-[5-(4-methoxy-phenyl)-4H-[1,2,4]triazol-3-yl]-cyclopropyl}-3-methyl-piperidin-1-yl)-2-methyl-propan-1-one] | –
13 | 4.74 | – | C[C@H]1CN(C(=O)[C@@](C)(O)C(F)(F)F)CC[C@H]1C1(c2nnc(-c3ccc(Cl)cc3)[nH]2)CC1 [Compound A33, (R)-1-((3R,4R)-4-{1-[5-(4-Chloro-phenyl)-4H-[1,2,4]triazol-3-yl]-cyclopropyl}-3-methyl-piperidin-1-yl)-3,3,3-trifluoro-2-hydroxy-2-methyl-propan-1-one] | –
14 | 5.18 | – | C[C@H]1CN(C(=O)[C@@](C)(O)C(F)(F)F)CC[C@H]1C1(c2nnc(-c3ccccc3)[nH]2)CC1 [Compound A13, (R)-3,3,3-Trifluoro-2-hydroxy-2-methyl-1-{(3R,4R)-3-methyl-4-[1-(5-phenyl-4H-[1,2,4]triazol-3-yl)-cyclopropyl]-piperidin-1-yl}-propan-1-one] | –
15 | 5.72 | – | COc1ccc(-c2nnc(C3([C@@H]4CCN(C(=O)[C@@](C)(O)C(F)(F)F)C[C@@H]4C)CC3)o2)cc1 [Compound A30, (R)-3,3,3-Trifluoro-2-hydroxy-1-((3R,4R)-4-{1-[5-(4-methoxy-phenyl)-[1,3,4]oxadiazol-2-yl]-cyclopropyl}-3-methyl-piperidin-1-yl)-2-methyl-propan-1-one] | –
16 | – | 6.74 | C[C@@](O)(C(=O)N1CCC(C2(c3nnc(-c4ccc(F)cc4)[nH]3)CC2)CC1)C(F)(F)F [Compound A2, (R)-3,3,3-Trifluoro-1-{4-{1-[5-(4-fluorophenyl)-4H-[1,2,4]triazol-3-yl]-cyclopropyl}-piperidin-1-yl}-2-hydroxy-2-methyl-propan-1-one] | 5.70
